Data as given in ChEMBL document CHEMBL1201862, “PubChem BioAssay data set” (2004).
Activity calls are given as the source filed them.

Tests used:
HEK293 = assay: EBV LMP1 TES2 canonical NF-kB signalling blockers – cell-based, HEK293, luciferase, cherry-pick, dose response (AID 588343); assay type: functional; conditions: Homo sapiens
[1] = HEK-293T cell viability reduction – luminescence, B-cell screen hits, cytotoxicity control for BCR NF-kB inhibitor project, dose response (AID 489021); assay type: functional, cell-based;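 further: HEK-293T cells carrying an NF-kB luciferase reporter; cells exposed to compound for about 14 hours before viability readout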
H9c2 = assay: cells; assay type: functional, cell-based; conditions: Rattus norvegicus, H9c2, Myocardium;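 further: confirmatory concentration-response retest of ultra-high-throughput screening hits for modulation of myocardial damage; cell death induced by hydrogen peroxide oxidative stress; compound pretreatment for 60 min then peroxide exposure for 2 h; potency is for protecting the cells against peroxide damage rather than for killing them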
Protein Wnt-3a = Protein Wnt-3a (Mus musculus, UniProt P27467); assay: antagonism of Wnt3a pathway luciferase reporter – Wnt-LIGHT cells, luminescence, selectivity assay for Gli-SUFU antagonist project, dose response (AID 651570); assay type: functional; conditions: read-out: IC50_Mean;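 further: Wnt-LIGHT reporter cells stimulated with conditioned medium from Wnt3a-producing cells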
Protein Wnt-3a, sequence (P27467 whole entry): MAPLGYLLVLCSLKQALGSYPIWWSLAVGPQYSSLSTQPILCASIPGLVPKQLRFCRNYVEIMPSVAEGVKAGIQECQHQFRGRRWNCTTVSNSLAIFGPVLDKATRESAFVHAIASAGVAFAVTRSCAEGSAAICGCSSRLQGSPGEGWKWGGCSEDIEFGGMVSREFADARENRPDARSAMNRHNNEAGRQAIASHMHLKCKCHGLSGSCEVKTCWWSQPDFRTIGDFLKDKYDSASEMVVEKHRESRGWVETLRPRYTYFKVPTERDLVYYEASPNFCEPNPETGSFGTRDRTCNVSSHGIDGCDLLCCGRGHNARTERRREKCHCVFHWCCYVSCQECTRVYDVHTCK

Cytochrome P450 3A4 = Cytochrome P450 3A4 (Homo sapiens, UniProt P08684);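 further: CYP3A4 tested as one member of a cytochrome P450 panel screen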
Cytochrome P450 3A4, sequence (P08684 whole entry): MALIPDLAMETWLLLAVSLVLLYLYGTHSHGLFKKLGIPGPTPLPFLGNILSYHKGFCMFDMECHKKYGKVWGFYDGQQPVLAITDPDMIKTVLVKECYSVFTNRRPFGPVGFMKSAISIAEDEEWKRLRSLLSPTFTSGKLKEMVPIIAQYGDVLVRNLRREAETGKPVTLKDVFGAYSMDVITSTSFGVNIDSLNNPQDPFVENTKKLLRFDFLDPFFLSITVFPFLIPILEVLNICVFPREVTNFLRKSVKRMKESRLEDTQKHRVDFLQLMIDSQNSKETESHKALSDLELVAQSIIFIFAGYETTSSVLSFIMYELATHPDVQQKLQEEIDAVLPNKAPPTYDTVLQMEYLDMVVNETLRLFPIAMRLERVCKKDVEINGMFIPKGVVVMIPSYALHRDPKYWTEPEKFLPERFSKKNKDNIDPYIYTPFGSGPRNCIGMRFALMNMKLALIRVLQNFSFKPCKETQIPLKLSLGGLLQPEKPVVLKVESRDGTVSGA

Cytochrome P450 2D6 = Cytochrome P450 2D6 (Homo sapiens, UniProt P10635);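 further: CYP2D6 member of a cytochrome P450 panel assay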
Cytochrome P450 2D6, sequence (P10635 whole entry): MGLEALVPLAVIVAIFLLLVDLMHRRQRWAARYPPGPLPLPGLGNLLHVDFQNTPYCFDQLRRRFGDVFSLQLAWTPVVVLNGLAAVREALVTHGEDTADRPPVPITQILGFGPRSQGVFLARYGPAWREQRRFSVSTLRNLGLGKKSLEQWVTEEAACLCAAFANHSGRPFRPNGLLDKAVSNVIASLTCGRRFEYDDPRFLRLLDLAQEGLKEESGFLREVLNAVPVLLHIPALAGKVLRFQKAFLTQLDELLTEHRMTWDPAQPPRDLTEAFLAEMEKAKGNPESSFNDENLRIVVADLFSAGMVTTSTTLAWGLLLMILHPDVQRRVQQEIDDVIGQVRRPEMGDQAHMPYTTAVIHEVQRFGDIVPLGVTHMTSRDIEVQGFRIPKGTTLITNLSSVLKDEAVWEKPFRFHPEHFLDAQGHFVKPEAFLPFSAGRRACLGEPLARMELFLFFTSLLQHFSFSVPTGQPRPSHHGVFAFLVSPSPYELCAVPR

[2] = target: T1, Mitochondrial peptide methionine sulfoxide reductase (Bos taurus, UniProt P54149); assay: Absorbance-based biochemical high throughput dose response assay for activators of Methionine sulfoxide reductase A (MsrA).; assay type: functional
T1 sequence (P54149 whole entry): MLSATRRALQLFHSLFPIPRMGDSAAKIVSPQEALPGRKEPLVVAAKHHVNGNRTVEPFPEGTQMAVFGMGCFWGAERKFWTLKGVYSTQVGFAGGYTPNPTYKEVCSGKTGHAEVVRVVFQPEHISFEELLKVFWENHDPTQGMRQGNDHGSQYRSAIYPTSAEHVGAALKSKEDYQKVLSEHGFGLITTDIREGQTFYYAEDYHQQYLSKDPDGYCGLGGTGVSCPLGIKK

[3] = blockers of bursicon-stimulated LGR2 cAMP reporter – cell-based, HEK293, CRE-luciferase reporter, cherry pick, set 2, dose response (AID 743343); assay type: functional;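 further: transfected cells were stimulated with diluted bursicon conditioned medium after compound addition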
[4] = luciferase reporter signal suppression in cells – H4 neuroglioma cells, luminescence, dose response (AID 1990); assay type: functional, cell-based
[5] = Luminescence Cell-Based Dose Response HTS to Identify Inhibitors of 5'UTR Stem-Loop Driven Prion Protein mRNA Translation in H4 Neuroglioblastoma Cells. [Related pubchem assays: 1827 (Project Summary), 1813 (Primary HTS)]; assay type: functional
[6] = blockade of melanocortin 4 receptor signaling – cell-based, plate reader, cherry pick, counter-screen for LGR2 antagonist project, dose response (AID 743444); assay type: functional;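 further: transfected HEK 293 cells stimulated with alpha-MSH peptide; potency of inhibitors of the alpha-MSH evoked signal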
[7] = alpha-synuclein stem-loop luciferase translation blockers – H4 neuroglioma cells, luminescence, confirmation (AID 1988); assay type: functional, cell-based
HeLa = assay: ATP-based viability loss in HeLa cells – cell-based, CellTiter-Glo luminescence, cherry-pick samples, cytotoxicity control for MITF activator project, dose response (AID 540259); assay type: functional; conditions: Homo sapiens
cells = assay type: functional
[8] = blockers of HIV-1 envelope-mediated cell-cell fusion – cherry-pick, dose response (AID 652057); assay type: functional, cell-based
[9] = HIV-1 AD8 envelope cell-cell fusion blockers – cherry-pick, dose response (AID 652062); assay type: functional, cell-based;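 further: luciferase signal from cell-cell fusion driven by HIV-1 clade B AD8 Env; potency is for inhibitors of fusion seen as a drop in luminescence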
[10] = off-target signal loss in HeLa-CEM21 co-culture – HeLa F-luc CTL cells, cherry-picked, counter-screen for HIV-1 Env fusion inhibitor project, dose response (AID 652040); assay type: functional, cell-based;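 further: potency for signal decrease marking cytotoxic or nonspecific inhibition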
[11] = viability loss in CEM21 cells – cell-based, CellTiter-Glo luminescence, cherry-picked, cytotoxicity control for viral fusion inhibitor project, dose response (AID 652042); assay type: functional;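 further: potency for signal decrease meaning cytotoxicity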
[12] = blockers of HIV-1 ZM109 envelope-driven cell-cell fusion – HeLa effector, CEM target cells, luciferase, cherry-pick, dose response (AID 652058); assay type: functional, cell-based;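 further: luciferase signal from HIV-1 Env mediated cell-cell fusion of effector and target cells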
[13] = target: 72 kDa type IV collagenase (Homo sapiens, UniProt P08253); assay: Dose Response validation of uHTS RPN11 inhibitor hits using a MMP-2 Fluorescence assay.; assay type: functional
72 kDa type IV collagenase, sequence (P08253 whole entry): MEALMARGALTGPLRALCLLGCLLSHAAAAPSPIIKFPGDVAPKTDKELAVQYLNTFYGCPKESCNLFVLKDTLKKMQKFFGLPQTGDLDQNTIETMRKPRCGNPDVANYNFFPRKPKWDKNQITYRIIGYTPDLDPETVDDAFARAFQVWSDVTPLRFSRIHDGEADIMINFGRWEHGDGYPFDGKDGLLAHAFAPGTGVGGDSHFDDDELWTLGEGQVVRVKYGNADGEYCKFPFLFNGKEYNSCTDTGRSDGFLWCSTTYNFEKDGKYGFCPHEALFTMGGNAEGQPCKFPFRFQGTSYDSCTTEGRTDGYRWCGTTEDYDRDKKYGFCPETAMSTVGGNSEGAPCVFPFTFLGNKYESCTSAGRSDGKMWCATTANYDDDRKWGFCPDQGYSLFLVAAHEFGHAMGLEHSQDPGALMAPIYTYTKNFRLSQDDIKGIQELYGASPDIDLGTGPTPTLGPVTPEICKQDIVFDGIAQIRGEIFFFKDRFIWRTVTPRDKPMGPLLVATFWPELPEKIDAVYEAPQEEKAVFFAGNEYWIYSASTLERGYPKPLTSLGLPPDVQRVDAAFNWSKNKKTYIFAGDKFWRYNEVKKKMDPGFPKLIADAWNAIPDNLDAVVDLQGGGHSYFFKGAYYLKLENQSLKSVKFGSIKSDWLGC

Streptococcus = assay: GAS UMAA2166 growth inhibition – luminescence, BacTiterGlo, counter-screen for streptokinase expression inhibitor project, dose response (AID 1915); assay type: functional, organism-based;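 further: potency for reduction of bacterial viability or growth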
[14] = target: 26S proteasome non-ATPase regulatory subunit 14 (Homo sapiens, UniProt O00487); assay: inhibition of proteasome subunit RPN11 – biochemical, fluorescence polarization, uHTS hits, confirmation (AID 602368); assay type: functional
26S proteasome non-ATPase regulatory subunit 14, sequence (O00487 whole entry): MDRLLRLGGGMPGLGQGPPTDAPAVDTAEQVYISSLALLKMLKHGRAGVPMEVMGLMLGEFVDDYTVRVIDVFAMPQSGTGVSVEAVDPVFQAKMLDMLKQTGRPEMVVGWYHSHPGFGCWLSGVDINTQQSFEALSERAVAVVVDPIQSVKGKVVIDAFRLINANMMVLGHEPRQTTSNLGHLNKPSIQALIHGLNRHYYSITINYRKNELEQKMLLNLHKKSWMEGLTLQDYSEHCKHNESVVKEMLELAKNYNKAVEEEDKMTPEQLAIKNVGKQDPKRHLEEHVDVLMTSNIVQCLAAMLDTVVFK

[15] = system: Streptococcus sp. 'group A'; assay: Streptococcus pyogenes SK(-)GAS viability under kanamycin – luminescence, BacTiterGlo, confirmation, counter-screen for streptokinase expression inhibitor project, dose response (AID 1900); assay type: functional, organism-based
Prothrombin = Prothrombin (Bos taurus, UniProt P00735); assay: thrombin protease inhibitors – biochemical, fluorescence polarization, uHTS hits, dose response (AID 602369); assay type: functional
[16] = target: T2, Heat shock factor protein 1 (Mus musculus, UniProt P38532); assay: enhancement of HSF1-driven luciferase signal – cell-based, NIH3T3, luminescence, dose retest, confirmation (AID 435004); assay type: functional;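 further: stress induced by proteasome inhibitor MG132 added 30 min after compound; luciferase reporter driven by HSF1 response element in NIH3T3 cells; actives raise luminescence as potentiators of the MG132 stress response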
T2 sequence (P38532 whole entry): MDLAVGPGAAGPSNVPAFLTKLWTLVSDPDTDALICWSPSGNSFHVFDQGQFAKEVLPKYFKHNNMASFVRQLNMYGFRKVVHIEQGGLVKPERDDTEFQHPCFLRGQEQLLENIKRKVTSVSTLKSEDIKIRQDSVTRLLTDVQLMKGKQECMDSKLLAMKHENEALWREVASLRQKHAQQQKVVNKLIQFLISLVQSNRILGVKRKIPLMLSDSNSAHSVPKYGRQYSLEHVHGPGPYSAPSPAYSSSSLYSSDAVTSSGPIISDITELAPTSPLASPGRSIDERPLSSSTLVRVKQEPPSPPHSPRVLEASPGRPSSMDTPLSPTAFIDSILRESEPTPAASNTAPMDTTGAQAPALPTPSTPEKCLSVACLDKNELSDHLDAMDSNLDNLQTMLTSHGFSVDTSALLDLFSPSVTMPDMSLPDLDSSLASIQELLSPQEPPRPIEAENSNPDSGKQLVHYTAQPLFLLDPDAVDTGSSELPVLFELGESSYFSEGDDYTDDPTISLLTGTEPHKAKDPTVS

Protein RecA = target: T3, Protein RecA (Mycobacterium tuberculosis, UniProt P9WHJ3); assay: Fluorescence Cell-Free Homogeneous Dose Retest to Identify Inhibitors of RecA-Intein Splicing Activity. [Related pubchem assays (depositor defined):AID2097, AID2223, AID489010, AID492950]; assay type: functional
T3 sequence (P9WHJ3 whole entry): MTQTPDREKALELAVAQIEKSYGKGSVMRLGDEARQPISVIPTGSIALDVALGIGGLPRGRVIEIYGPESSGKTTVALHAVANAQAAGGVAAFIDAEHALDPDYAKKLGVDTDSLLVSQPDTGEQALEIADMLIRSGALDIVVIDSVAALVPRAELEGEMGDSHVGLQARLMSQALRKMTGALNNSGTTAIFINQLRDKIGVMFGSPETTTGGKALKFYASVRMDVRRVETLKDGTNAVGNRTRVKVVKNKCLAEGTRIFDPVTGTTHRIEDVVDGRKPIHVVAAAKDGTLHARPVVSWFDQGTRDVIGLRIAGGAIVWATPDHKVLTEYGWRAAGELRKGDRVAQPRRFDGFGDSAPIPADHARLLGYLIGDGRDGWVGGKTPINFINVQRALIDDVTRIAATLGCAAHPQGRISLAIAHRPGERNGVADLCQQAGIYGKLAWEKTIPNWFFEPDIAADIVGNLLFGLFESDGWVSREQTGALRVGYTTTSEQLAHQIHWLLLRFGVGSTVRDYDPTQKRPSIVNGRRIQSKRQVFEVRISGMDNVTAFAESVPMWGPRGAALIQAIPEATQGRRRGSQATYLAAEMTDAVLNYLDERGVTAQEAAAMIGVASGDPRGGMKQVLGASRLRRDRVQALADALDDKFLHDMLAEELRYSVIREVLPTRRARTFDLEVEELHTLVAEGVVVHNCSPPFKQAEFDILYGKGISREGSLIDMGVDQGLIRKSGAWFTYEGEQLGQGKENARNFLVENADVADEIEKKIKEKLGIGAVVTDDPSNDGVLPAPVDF

[17] = target: Heat shock protein HSP 90-alpha (Homo sapiens, UniProt P07900); assay type: functional, organism-based
[18] = target: T4, Replicative DNA helicase DnaB (Mycobacterium tuberculosis, UniProt P9WMR3); assay: DnaB intein splicing inhibitors, dose response, biochemical, cell-free fluorescence (AID 449749); assay type: functional
T4 sequence (P9WMR3 whole entry): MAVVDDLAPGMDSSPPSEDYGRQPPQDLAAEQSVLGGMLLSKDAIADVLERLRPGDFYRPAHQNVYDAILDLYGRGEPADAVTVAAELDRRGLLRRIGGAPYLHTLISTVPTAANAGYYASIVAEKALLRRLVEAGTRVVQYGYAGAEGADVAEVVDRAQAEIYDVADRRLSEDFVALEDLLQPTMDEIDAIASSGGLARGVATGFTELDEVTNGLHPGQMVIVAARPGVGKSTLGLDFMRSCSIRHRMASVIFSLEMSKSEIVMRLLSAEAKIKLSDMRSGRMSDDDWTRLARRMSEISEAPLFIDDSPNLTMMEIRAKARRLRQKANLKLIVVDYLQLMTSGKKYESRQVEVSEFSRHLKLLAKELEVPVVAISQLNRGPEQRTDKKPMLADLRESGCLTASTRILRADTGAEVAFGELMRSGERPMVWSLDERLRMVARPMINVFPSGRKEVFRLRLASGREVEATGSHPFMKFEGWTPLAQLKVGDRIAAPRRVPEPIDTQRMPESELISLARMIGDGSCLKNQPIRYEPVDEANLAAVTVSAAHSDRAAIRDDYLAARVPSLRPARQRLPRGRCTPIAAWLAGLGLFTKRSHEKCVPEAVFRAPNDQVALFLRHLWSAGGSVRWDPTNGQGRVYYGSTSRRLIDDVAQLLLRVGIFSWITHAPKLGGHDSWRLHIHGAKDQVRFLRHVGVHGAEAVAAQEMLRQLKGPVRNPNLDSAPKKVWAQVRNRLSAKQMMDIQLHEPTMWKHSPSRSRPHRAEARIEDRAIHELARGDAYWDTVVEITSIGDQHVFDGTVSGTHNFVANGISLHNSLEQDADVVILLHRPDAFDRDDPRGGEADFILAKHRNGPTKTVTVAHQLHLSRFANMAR

With `COc1ccc(/C=C2\N=C(C)OC2=O)cc1[N+](=O)[O-]` the AC50 (HEK293) was 237 µM (active).
In the case of `COc1cc(NC(=O)c2cc3c(C)nc4ccccc4c3o2)cc(OC)c1OC`, the IC50 [1] was 62.8 µM (inactive) and the IC50 (H9c2) was > 79 µM (inactive).
In the case of `COc1nnc(-c2ccc(N3CCCCC3)c(N)c2)c2ccccc12`, the IC50 (Protein Wnt-3a) was 25.8 µM (inactive).
With `O=C1CCCCCC1C1(O)C(=O)Nc2ccc(Br)cc21` (configuration not stated) the AC50 (Cytochrome P450 3A4) was 17.8 µM (inconclusive) and the AC50 (Cytochrome P450 2D6) was “inconclusive”.
With `N#Cc1ccccc1NC(=O)CN1C(=O)NC(Cc2c[nH]c3ccccc23)C1=O` (configuration not stated) the EC50 [2] was > 104 µM (inactive).
For `CCOC(=O)c1cn2nc(N3CCCC3)ccc2n1`, the AC50 [3] was 5.94 µM (active), the AC50 (HEK293) was 3.17 µM (active) and the EC50 [4] was 8.17 µM (inconclusive). The EC50 [5] was 2.56 µM (active), the AC50 [6] was 5.54 µM (active) and the EC50 [7] was 5.55 µM (active).
With `O=C(Nc1ccccn1)c1ccccc1` the AC50 (HeLa) was 83.2 µM (active).
For `CCc1ccc(/C=N/NC(=O)c2ccccn2)cc1`, the AC50 (HEK293) was 3.11 µM (active) and the IC50 (cells) was 5.9 µM (active).
In the case of `COc1cccc(-c2nnc3sc(C4CCCCC4)nn23)c1`, the AC50 [8] was 4.26 µM (active), the AC50 [9] was 3.09 µM (active) and the AC50 [10] was 3.63 µM (active). The AC50 (HEK293) was 17 µM (active), the AC50 [11] was 30 µM (active) and the AC50 [12] was 5.07 µM (active).
In the case of `CC12C=CC(=O)CC1CCC1C2CCC2(C)C(O)C(O)CC12` (configuration not stated), the IC50 (H9c2) was > 79 µM (inactive).
With `CN1CCN(C(c2ccc(Cl)cc2)c2cc(Cl)c3cccnc3c2O)CC1` (configuration not stated) the IC50 [13] was 14.8 µM (active), the EC50 (Streptococcus) was 3.8 µM (active) and the IC50 [14] was 56.4 µM (active). For the same molecule, the EC50 [15] was 1.92 µM (active), the IC50 (Prothrombin) was 75.6 µM (active) and the EC50 [16] was > 260 µM (inconclusive). The EC50 (Protein RecA) was 2.42 µM (active), the AC50 [17] was 0.77 µM (active) and the AC50 [18] was > 380 µM (inactive).
